Test results: the METLIN SMRT retention time set (Domingo-Almenara et al. 2019)

Experiment: gradient 5% acetonitrile 3 min, to 50% in 2 min, to 85% in 15 min, held 3 min, 100 µL/min
Conditions: column: Zorbax Extend-C18 2.1 x 50 mm; eluents: water / acetonitrile, 0.1% formic acid
Procedure, shortened: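 Over 3 months, pure standards in mixtures of ~100 molecules were run by HPLC coupled to a quadrupole time-of-flight mass spectrometer in positive and negative ionization mode. The column was a Zorbax Extend-C18 (2.1 × 50 mm, 1.8 μm) at 100 μL/min, eluted with water and acetonitrile each holding 0.1% formic acid, with 40 μL dead and 900 μL dwell volumes. Retention time was determined from adduct peaks chosen by software and checked manually.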

SMILES	RP-LC retention time [s]
Cc1ccc(S(=O)(=O)NCC2CN(CC3CC3)CC23CCCCC3)c(C)c1 (configuration not stated)	767
CC(=O)c1ccc(NC(=O)c2[nH]c3cc(C)sc3c2CN2CCCC2)cc1	665
O=C1CCCc2cc(S(=O)(=O)N3CCCC(C(=O)N4CCc5ccccc5C4)C3)ccc2N1 (configuration not stated)	792
CCCNC(=O)C1CCN(c2nc3ccsc3c(=O)n2-c2ccc(C)cc2)CC1	756
COCCNC(=O)CC1CCN(C(=O)c2[nH]c(C)c(C)c2C)CC1	657
CC(C)(C)c1ccc(OCC(=O)N(Cc2ccc(Br)o2)C2CCS(=O)(=O)C2)cc1 (configuration not stated)	1060
Cc1cc(C)cc(OCC(=O)N(Cc2ccc(Br)o2)C2CCS(=O)(=O)C2)c1 (configuration not stated)	966
CCc1nnc(-c2ccc3ccn(CC(=O)Nc4ccc(OC)cc4)c3c2)o1	763
O=C(NCc1ccc(N2CCCCC2)cc1)C1CCN(c2nnc3ccccn23)CC1	545
O=C(Nc1ccccc1)C1CCN(C(=O)C2Sc3ccccc3NC2=O)CC1 (configuration not stated)	731
Cc1csc(NC(=O)C2CC(=O)N(c3n[nH]c4ccccc34)C2)n1 (configuration not stated)	665
Cc1ccc(Cn2cccc(C(=O)Nc3nc4c(C)cccc4s3)c2=O)cc1	1240
C=C1C(=O)OC2CC1C(OC(C)=O)C/C(C)=C/CC/C(C)=C\CCC2(C)O (configuration not stated)	917
COc1ccc(-c2nc3ncccn3c2Nc2cccc(C(F)(F)F)c2)cc1	903
O=C(CN1C(=O)CSc2ccc(C(=O)N3CCCCC3)cc21)NCCN1CCCCC1	612
Cc1ccc(-c2csc(NC(=O)COc3c(C)ccc(C)c3C)n2)cc1	1320
Cc1cc(=O)n(CC(=O)Nc2ccc(Cl)cc2)c(-c2ccc(F)cc2)n1	1120
Cc1nnc(N2CCCC(C(=O)NC3CCCCC3)C2)c2nn(-c3ccc(Cl)cc3)c(C)c12 (configuration not stated)	784
COc1ccc(-n2ncc3c(=O)n(Cc4nc(-c5ccc(Br)cc5)no4)cnc32)cc1	1090
COc1ccc(-c2csc(NC(=O)c3ccc(Br)s3)n2)cc1OC	990
CCn1cc(S(=O)(=O)N2CC(Oc3ccc(-c4nc(C)no4)cc3)C2)cn1	844
CC(C)n1cnnc1CC1CCN(C(=O)Nc2ccc3c(c2)OCCO3)CC1	625

SMILES	RP-LC retention time [s]
CCOc1ccc(-c2csc(Cc3nc(-c4ccc(C)cc4)no3)n2)cc1	1310
CCn1cc(SCC(=O)NCc2ccc3c(c2)OCO3)c2ccccc21	854
Cc1nn2c(CNS(=O)(=O)c3cccc(F)c3)c(-c3ccccc3)nc2s1	852
O=C(NCc1ccc(Cl)cc1)c1c(O)c2cccnc2n(-c2ccccc2)c1=O	1260
CCn1cc(CCNC(=O)Cc2cccs2)c2cccnc21	651
CC(C)(C)NS(=O)(=O)c1cncc(-c2cc(F)c3nc(N)nn3c2)c1	750
CC(NC(=O)C1CCCN(C(=O)c2cc3sccc3n2C)C1)C12CC3CC(CC(C3)C1)C2 (configuration not stated)	1090
Cc1sc(NC(=O)c2ccc3c(c2)OCO3)nc1-c1ccc2c(c1)N(C)C(=O)CO2	823
Cc1ccc2[nH]cc(CCN3CC(C(=O)Nc4ccc(Cl)cc4)CC3=O)c2c1 (configuration not stated)	882
CCc1ccc(CNC(=O)C2CCCN(c3nc4c(s3)c(C)nn4-c3ccc(F)cc3)C2)cc1 (configuration not stated)	1240
COc1ccc(-c2cc(NS(=O)(=O)c3cnc[nH]3)n(C3CCS(=O)(=O)C3)n2)cc1 (configuration not stated)	649
O=C(O)Cc1csc(NC(=O)C2CCC(=O)N2)n1 (configuration not stated)	528
CN1CCN(C(=O)c2csc(N3CCN(c4ccccc4F)CC3)n2)CC1	649
COc1cccc(NC(=O)N2CCN(c3cc(C)nc(N4CCCC4)n3)CC2)c1	657
COc1ccc(NC(=O)Cn2nc3n(c2=O)CCCC3)cc1Cl	674
O=C(c1cccs1)N1[C@H]2CC[C@@H]1c1cnc(-c3ccccc3)nc1C2	907
CN(C)CC1(O)CCC2(CCN(C(=O)CC3CCCC3)CC2)CC1	598
Cc1cc(C)c(S(=O)(=O)N2CC(=O)N(CC3CC3)C3(CCOCC3)C2)c(C)c1	944
Fc1ccc(CN2CCc3nc(N4CCN(c5ccccc5F)CC4)ncc3C2)cc1F	806
Cc1cc(C)c2[nH]c3c(c(=O)c2c1)CN(CC(=O)NCc1ccccc1F)CC3	626
CCN1CCCC1CNC(=O)CN1C(=O)CCn2nc(-c3cn(C)c4ccccc34)cc21 (configuration not stated)	571
Cc1c(Cl)cccc1NC(=O)CCOc1ccccc1	888

SMILES	RP-LC retention time [s]
O=C(NCCc1ccccc1)C(=O)NCC1COc2ccccc2O1 (configuration not stated)	960
CCN(CC)S(=O)(=O)c1ccc(-n2cnc(C(=O)NCc3ccc(OC)c(OC)c3)c2)cc1	766
Cc1ccc(Cn2c(=O)n(CCNC(=O)c3ccco3)c3ncccc32)cc1	760
Cc1cc(C)c(S(=O)(=O)N2CCn3c(nn(CC4CC4)c3=O)C2)c(C)c1	870
CCc1ccc(NC(=O)C2CCN(S(=O)(=O)c3cn(CC)cn3)CC2)cc1	794
Cc1ccc(NC(=O)C2CCN(S(=O)(=O)c3ccc4c(c3)NC(=O)C(C)O4)CC2)cc1Cl (configuration not stated)	948
CC1CCN(S(=O)(=O)c2cc(C(=O)NCc3ccc(Br)cc3)n(C)c2)CC1	1080
Cc1ccc(S(=O)(=O)N2C[C@@H]3C[C@H](NC(=O)c4ccccc4)[C@H]2C3)cc1Cl	969
COc1ccc(CCc2nc3nccc(-c4ccc(F)cc4OC)n3n2)cc1	916
CC(=O)Nc1nsc(N2CCC(C(=O)NCc3ccc(F)cc3F)CC2)n1	798
O=C(c1cc(-c2ccncc2)n[nH]1)N1CCCC(C(=O)N2CCN(c3ccc(Cl)cc3)CC2)C1 (configuration not stated)	661
CCn1nccc1-c1cccc(-c2noc(C3CCN(S(=O)(=O)c4ccc(C)cc4)CC3)n2)c1	1170
Cc1nc(-c2csc(S(=O)(=O)N3CCCC(C(=O)Nc4ccc(F)cc4F)C3)c2)no1 (configuration not stated)	952
CCOC(=O)N1CCN(C(=O)CSc2nc(=O)[nH]c3c2CCC3)CC1	574
COc1ccc(N2CCN(C(=O)Cn3cccc3-c3nnc(C4CCC4)o3)CC2)cc1	795
Cc1ccc(NC(=O)C2(C)Oc3cccnc3NC2=O)cc1 (configuration not stated)	727
COc1cccc(CNS(=O)(=O)c2cc(-c3cc(C(F)(F)F)on3)sc2C)c1	1120
CCn1cc(-c2nc(-c3ccc(F)cc3)no2)c(=O)c2cc(F)c(N3CCOCC3)cc21	951
CNC(=O)NC1CCN(c2nc3cccnc3n(Cc3ccc(C)cc3)c2=O)CC1	860
CCN(CC)C(=O)c1ccc2c(c1)ncn2CCNC(=O)Nc1ccc(Br)cc1	644
COCCCNC(=O)C1(C)Cn2nc(-c3ccccc3)cc2C(=O)N1Cc1cccc(OC)c1 (configuration not stated)	887
CCCN1C(=O)c2c(C(=O)N3CCOCC3)ncn2CC1(C)C(=O)NCc1ccc(F)cc1 (configuration not stated)	618

SMILES	RP-LC retention time [s]
CCOc1ccccc1C(=O)NCc1nc(C)no1	684
COc1ccccc1C(=O)Nc1nc(-c2ccc3c(c2)NC(=O)C(C)O3)cs1 (configuration not stated)	924
N=c1nc(N2CCCCC2)cc(N)n1O	676
CCc1nnc(-c2cn(CC(=O)NCCCc3ccccc3)c3ccccc23)o1	877
COc1ccc(NC(=O)N2CC(N(Cc3ccncc3)CC(C)C)C2)cc1OC	622
Cc1ccc(CNC(=O)c2cc3n(n2)CC(C)(C(=O)NC2CCCCC2)N(C)C3=O)cc1 (configuration not stated)	605
CC1CN(C(=O)CSc2cn(CC(=O)N3CCCCCC3)c3ccccc23)CC(C)O1 (configuration not stated)	897
Cc1cc(C)cc(Nc2nc(C)cc(=O)n2CC(=O)Nc2ccc(Br)cc2)c1	966
CC(C)CC(=O)Nc1ccc(-n2cnc(C(=O)N3CCc4ccccc4C3)c2)nc1	817
Nc1n[nH]c(-c2ccc(Cl)cc2)n1	605
Cc1noc(C)c1S(=O)(=O)NCCn1c(C)cnc1-c1ccccc1	616
Cc1ccc(-c2nc(Cn3c(C)nc4onc(C)c4c3=O)c(C)o2)cc1	1170
Cc1ccc(C)c(NC(=O)Cn2c(=O)n(-c3ccc(F)cc3)c3ncccc32)c1	880
CCCN1C(=O)C2CCC(=O)N2c2ccc(C(=O)N3CCN(CC)CC3)cc21 (configuration not stated)	561
COc1cccc(S(=O)(=O)N2CCC(n3cnnc3C3CC3)CC2)c1	695
Cc1ccc(-c2csc(NC(=O)CSc3nc4c(cc3C#N)CCCC4)n2)cc1	1290
COC(=O)C1=CN(c2ccc(OC)c(Cl)c2)c2cc(F)ccc2S1(=O)=O	914
Cc1ccc(NS(=O)(=O)c2cc(-c3nc(C(C)(C)C)cs3)cs2)c(C)c1	1310
Cc1ccc2[nH]cc(CCN3CC(C(=O)Nc4ccc(F)c(Cl)c4)CC3=O)c2c1 (configuration not stated)	899
Cc1ccc(CNC(=O)c2nc(Nc3ccc(F)cc3)c3ccccc3n2)o1	784
CC(C)n1cnc(S(=O)(=O)N2CCCC(C(=O)Nc3cccc(Br)c3)C2)c1 (configuration not stated)	898
